Molecules are shown by their SMILES. Where two headings read alike, the source gives them in different places.

A short description of data set [1]: Acute toxicity in mouse (LD50). The note with it: in vivo.
For data set [2], the system named is Thiopental-induced Anesthesia. As to the kind of experiment: Potentiating effect of thiopental-induced anesthesia (anesthesia-potentiating effect). The note with it: 0.5 h, read-out: Potentiating Effect of Thiopental-induced Anesthesia ED50. It counts as in vivo, mouse. As for the experimental part: The pharmacological test was performed in the manner that to a mouse having the body weight of about 25 g was orally administered and, after 30 minutes, given through the vein sodium thiopental in an amount of 30 mg per 1 kg of the body weight, and then the duration time of loss of righting reflux was detected. In the above Table, the value is expressed in ED50 value, by which the duration time of loss of righting reflex is prolonged twice as long as that of the control having been given with thiopental only.

Setting [3] is: ip, 95% confidence limits in parentheses where given, read-out: Acute Toxicity in mouse LD50 (i.p.).
[4] abbreviates: mouse, oral, sodium thiopental 30 mg/kg i.v. after 30 minutes, ED50 = dose doubling duration of loss of righting reflex vs control, Litchfield-Wilcoxon, 95% confidence limits in parentheses.
Setting [5] is: po, 95% confidence limits in parentheses, read-out: Acute Toxicity in mouse LD50 (p.o.).

The term LD50 denotes the dose at which mortality reaches 50%. In general, ED50 refers to the midpoint of the dose-response relation. Turning to `Cc1cccc(N2CCN(CCc3c(C)nc4cc(C)cc(C)n4c3=O)CC2)c1` [3-[2-(4-m-tolyl-1-piperazinyl)ethyl]-2,6,8-trimethyl-4H-pyrido[1,2-a]pyrimidin-4-one], the LD50 in data set [1] (setting [3]) was in the range of 100 to 300 mg/kg. Moreover, the ED50 in data set [2] (setting [4]) is 1.7 mg/kg.
As to `Cc1cccc(N2CCN(CCc3c(C)nc4cc(C)ccn4c3=O)CC2)c1` [3-[2-(4-m-tolyl-1-piperazinyl)ethyl]-2,8-dimethyl-4H-pyrido[1,2-a]pyrimidin-4-one], the LD50 in data set [1] (setting [3]) was 100 to 300 mg/kg; in data set [1] (setting [5]), 480 mg/kg. Also, the ED50 in data set [2] (setting [4]) was determined as 0.8 mg/kg.
Taken in the same sequence, the figures for `Cc1ccn2c(=O)c(CCN3CCN(c4cccc(Cl)c4)CC3)c(C)nc2c1` [3-[2-(4-m-Chlorophenyl-1-piperazinyl)ethyl]-2,8-dimethyl-4H-pyrido[1,2-a]pyrimidin-4-one] were 100 to 300 mg/kg, 635 mg/kg and 0.92 mg/kg.
Consider `Cc1ccn2c(=O)c(CCN3CCN(c4ccc(Cl)cc4)CC3)c(C)nc2c1` [3-[2-(4-p-Chlorophenyl-1-piperazinyl)ethyl]-2,8-dimethyl-4H-pyrido[1,2-a]pyrimidin-4-one], for which the LD50 in data set [1] (setting [3]) lay in the range of 100 to 300 mg/kg. Also, the ED50 in data set [2] (setting [4]) came out at 2.9 mg/kg.
Take `Cc1ccc(N2CCN(CCc3c(C)nc4c(C)cccn4c3=O)CC2)cc1` [3-[2-(4-p-Tolyl-1-piperazinyl)ethyl]-2,9-dimethyl-4H-pyrido[1,2-a]pyrimidin-4-one]: the LD50 in data set [1] (setting [3]) was in the range of 100 to 300 mg/kg. Also, the ED50 in data set [2] (setting [4]) was determined as 1.8 mg/kg.
In the case of `CN(C)CCCN1c2ccccc2Sc2ccc(Cl)cc21` [chlorpromazine, reference compound], the LD50 in data set [1] (setting [3]) stood at 105 mg/kg; in data set [1] (setting [5]) it was 245 mg/kg. For the same compound, the ED50 in data set [2] (Mus musculus, po) came out at 3.5 mg/kg.
On to `COc1cccc(N2CCN(CCc3c(C)nc4cc(C)ccn4c3=O)CC2)c1` [3-[2-(4-m-Methoxyphenyl-1-piperazinyl)ethyl]-2,8-dimethyl-4H-pyrido[1,2-a]pyrimidin-4-one], for which, in data set [1] (setting [3]), the LD50 was in the range of 100 to 300 mg/kg. In addition, the ED50 in data set [2] (setting [4]) amounted to 0.7 mg/kg.
Regarding `Cc1cccc(N2CCN(CCc3c(C)nc4c(C)cccn4c3=O)CC2)c1` [3-[2-(4-m-Tolyl-1-piperazinyl)ethyl]-2,9-dimethyl-4H-pyrido[1,2-a]pyrimidin-4-one], the LD50 in data set [1] (setting [3]) lay in the range of 100 to 300 mg/kg. The ED50 in data set [2] (setting [4]) is 1.25 mg/kg.

Values taken from patent US3960863A, “Pyrido[1,2-a]pyrimidinone derivatives” (Sankyo Company Limited, priority 1974, dated 1976).
